# Test results: publication PMC5218480 (PLoS ONE, 2017)
# Test system: MV-4-11 cells
# Assay: Gene expression microarray analysis (Affymetrix PrimeView) and GSEA
# Format: cell-based, human
# Set-up: RFU PODN (11730768_x_at) / Fold change /veh PODN (11730768_x_at) / RFU LINC00158 (11744669_a_at) / Fold change /veh LINC00158 (11744669_a_at) / RFU DUSP10 (11751237_a_at) / Fold change /veh DUSP10 (11751237_a_at) / RFU ID3 (11757404_x_at) / Fold change /veh ID3 (11757404_x_at) / RFU PLEKHG5 (11737974_s_at) / Fold change /veh PLEKHG5 (11737974_s_at) / RFU LRRC4B (11730491_at) / Fold change /veh LRRC4B (11730491_at) / RFU GIMAP4 (11747438_a_at) / Fold change /veh GIMAP4 (11747438_a_at) / RFU KRT8 (11758183_x_at) / Fold change /veh KRT8 (11758183_x_at) / RFU CNN1 (11734310_a_at) / Fold change /veh CNN1 (11734310_a_at) / RFU VPS37D (11726825_at) / Fold change /veh VPS37D (11726825_at) / RFU C10orf10 (11716522_x_at) / Fold change /veh C10orf10 (11716522_x_at) / RFU KIR2DL2 /// KIR2DL4 /// KIR2DL5A /// KIR2DL5B /// KIR2DS1 /// KIR2DS2 /// KIR2DS3 /// KIR2DS4 /// KIR3DL3 /// KIR3DL3 /// KIR3DS1 (11738374_at) / Fold change /veh KIR2DL2 /// KIR2DL4 /// KIR2DL5A /// KIR2DL5B /// KIR2DS1 /// KIR2DS2 /// KIR2DS3 /// KIR2DS4 /// KIR3DL3 /// KIR3DL3 /// KIR3DS1 (11738374_at) / RFU C1QL1 (11718748_at) / Fold change /veh C1QL1 (11718748_at) / RFU TMPRSS4 (11747572_a_at) / Fold change /veh TMPRSS4 (11747572_a_at) / RFU HAMP (11756126_x_at) / Fold change /veh HAMP (11756126_x_at) / RFU RNFT2 (11725882_a_at) / Fold change /veh RNFT2 (11725882_a_at) / RFU NR4A2 (11747474_a_at) / Fold change /veh NR4A2 (11747474_a_at) / RFU ABCC12 (11746883_a_at) / Fold change /veh ABCC12 (11746883_a_at) / RFU TMEM136 (11760407_x_at) / Fold change /veh TMEM136 (11760407_x_at) / RFU CLDN22 /// WWC2 (11732394_at) / Fold change /veh CLDN22 /// WWC2 (11732394_at) / RFU HLA-DPB1 (11760878_x_at) / Fold change /veh HLA-DPB1 (11760878_x_at) / RFU SPINT1 (11716480_a_at) / Fold change /veh SPINT1 (11716480_a_at) / RFU GAP43 (11754022_s_at) / Fold change /veh GAP43 (11754022_s_at) / RFU A4GNT (11735810_at) / Fold change /veh A4GNT (11735810_at) / RFU PRB3 (11715151_x_at) / Fold change /veh PRB3 (11715151_x_at) / RFU TUBB4B (11761932_at) / Fold change /veh TUBB4B (11761932_at) / RFU CAPN14 (11732068_a_at) / Fold change /veh CAPN14 (11732068_a_at) / RFU TMCC2 (11721928_a_at) / Fold change /veh TMCC2 (11721928_a_at) / RFU IRGQ (11745062_a_at) / Fold change /veh IRGQ (11745062_a_at) / RFU FAM174B (11720279_a_at) / Fold change /veh FAM174B (11720279_a_at) / RFU TMPRSS4 (11748680_a_at) / Fold change /veh TMPRSS4 (11748680_a_at) / RFU FAM212B (11763350_a_at) / Fold change /veh FAM212B (11763350_a_at) / RFU PLEKHG5 (11743358_a_at) / Fold change /veh PLEKHG5 (11743358_a_at) / RFU ZSCAN30 (11745921_a_at) / Fold change /veh ZSCAN30 (11745921_a_at) / RFU CMKLR1 (11741424_a_at) / Fold change /veh CMKLR1 (11741424_a_at) / RFU LOC101060620 /// MAPK8IP1 (11723275_at) / Fold change /veh LOC101060620 /// MAPK8IP1 (11723275_at) / RFU SPTSSB (11747773_x_at) / Fold change /veh SPTSSB (11747773_x_at) / RFU PRSS12 (11739890_at) / Fold change /veh PRSS12 (11739890_at) / RFU BIN1 (11741810_x_at) / Fold change /veh BIN1 (11741810_x_at) / RFU WNT11 (11732464_a_at) / Fold change /veh WNT11 (11732464_a_at) / RFU C10orf10 (11716521_a_at) / Fold change /veh C10orf10 (11716521_a_at) / RFU C5orf56 (11738089_at) / Fold change /veh C5orf56 (11738089_at) / RFU CYB561 (11721691_x_at) / Fold change /veh CYB561 (11721691_x_at) / RFU ANKRD19P (11752326_a_at) / Fold change /veh ANKRD19P (11752326_a_at) / RFU OR2T12 /// OR2T33 /// OR2T8 (11738714_s_at) / Fold change /veh OR2T12 /// OR2T33 /// OR2T8 (11738714_s_at) / RFU VCAN (11748164_a_at) / Fold change /veh VCAN (11748164_a_at) / RFU JSRP1 (11732532_at) / Fold change /veh JSRP1 (11732532_at) / RFU KRTAP10-11 (11738290_x_at) / Fold change /veh KRTAP10-11 (11738290_x_at) / RFU MYO3A (11730013_a_at) / Fold change /veh MYO3A (11730013_a_at) / RFU EBF3 (11725865_a_at) / Fold change /veh EBF3 (11725865_a_at) / RFU CAMK2N1 (11719241_x_at) / Fold change /veh CAMK2N1 (11719241_x_at) / RFU C5orf56 (11738088_a_at) / Fold change /veh C5orf56 (11738088_a_at) / RFU OLFML3 (11715873_a_at) / Fold change /veh OLFML3 (11715873_a_at) / RFU LOC100653217 /// NTM (11731650_a_at) / Fold change /veh LOC100653217 /// NTM (11731650_a_at) / RFU MAPK11 (11762145_a_at) / Fold change /veh MAPK11 (11762145_a_at) / RFU FIZ1 (11724087_x_at) / Fold change /veh FIZ1 (11724087_x_at) / RFU OASL (11726364_x_at) / Fold change /veh OASL (11726364_x_at) / RFU SOX15 (11748057_x_at) / Fold change /veh SOX15 (11748057_x_at) / RFU CD79A (11719716_a_at) / Fold change /veh CD79A (11719716_a_at) / RFU HIST1H1D (11736915_at) / Fold change /veh HIST1H1D (11736915_at) / RFU CASKIN2 (11723855_a_at) / Fold change /veh CASKIN2 (11723855_a_at) / RFU LOC730098 (11760151_x_at) / Fold change /veh LOC730098 (11760151_x_at) / RFU OR4N2 (11742367_at) / Fold change /veh OR4N2 (11742367_at) / RFU PRRT2 (11749266_a_at) / Fold change /veh PRRT2 (11749266_a_at) / RFU SNX32 (11753110_a_at) / Fold change /veh SNX32 (11753110_a_at) / RFU CDHR5 (11726645_a_at) / Fold change /veh CDHR5 (11726645_a_at) / RFU RCAN1 (11760418_a_at) / Fold change /veh RCAN1 (11760418_a_at) / RFU FAM167A (11723789_a_at) / Fold change /veh FAM167A (11723789_a_at) / RFU FAM26E (11764081_at) / Fold change /veh FAM26E (11764081_at) / RFU ISYNA1 (11749810_s_at) / Fold change /veh ISYNA1 (11749810_s_at) / RFU ACY1 (11761880_at) / Fold change /veh ACY1 (11761880_at) / RFU 11764098_at / Fold change /veh 11764098_at / RFU SAMD14 (11745864_x_at) / Fold change /veh SAMD14 (11745864_x_at) / RFU NPB (11741838_a_at) / Fold change /veh NPB (11741838_a_at) / RFU TMPRSS6 (11731388_a_at) / Fold change /veh TMPRSS6 (11731388_a_at) / RFU KRTAP10-2 (11738614_at) / Fold change /veh KRTAP10-2 (11738614_at) / RFU ARHGAP8 /// PRR5-ARHGAP8 (11727945_x_at) / Fold change /veh ARHGAP8 /// PRR5-ARHGAP8 (11727945_x_at) / RFU KRTAP5-7 /// NADSYN1 (11734609_at) / Fold change /veh KRTAP5-7 /// NADSYN1 (11734609_at) / RFU RASL12 (11751679_a_at) / Fold change /veh RASL12 (11751679_a_at) / RFU CDKN2B (11736163_a_at) / Fold change /veh CDKN2B (11736163_a_at) / RFU PRF1 (11729649_at) / Fold change /veh PRF1 (11729649_at) / RFU, ZNF638 /// ZNF638-IT1 / Fold change vs veh, ZNF638 /// ZNF638-IT1 / RFU, PANK3 / Fold change vs veh, PANK3 / RFU, SH3YL1 / Fold change vs veh, SH3YL1 / RFU, ZEB2 / Fold change vs veh, ZEB2 / RFU, NRIP1 / Fold change vs veh, NRIP1 / RFU, PTTG1IP / Fold change vs veh, PTTG1IP / RFU, CAPN2 / Fold change vs veh, CAPN2 / RFU, MED14 / Fold change vs veh, MED14 / RFU, SNORA58 / Fold change vs veh, SNORA58 / RFU, C1orf63 / Fold change vs veh, C1orf63 / RFU, LRRFIP1 / Fold change vs veh, LRRFIP1 / RFU, NDUFAF7 / Fold change vs veh, NDUFAF7 / RFU, SLC12A2 / Fold change vs veh, SLC12A2 / RFU, IBTK / Fold change vs veh, IBTK / RFU, ESF1 / Fold change vs veh, ESF1 / Fold change vs veh, TMEM50B / RFU, TAOK1 / Fold change vs veh, TAOK1 / RFU, ACBD3 / Fold change vs veh, ACBD3 / RFU, TMA16 / Fold change vs veh, TMA16 / RFU, RWDD3 / Fold change vs veh, RWDD3 / RFU, BCAT1 / Fold change vs veh, BCAT1 / RFU, EDEM3 / Fold change vs veh, EDEM3 / RFU, TMEM33 / Fold change vs veh, TMEM33 / RFU, WDR75 / Fold change vs veh, WDR75 / RFU, AHCTF1 / Fold change vs veh, AHCTF1 / RFU, TFRC / Fold change vs veh, TFRC / RFU, ZDHHC17 / Fold change vs veh, ZDHHC17 / RFU, NOM1 / Fold change vs veh, NOM1 / RFU, ARL8B / Fold change vs veh, ARL8B / RFU, ZBTB11 / Fold change vs veh, ZBTB11 / RFU, TAMM41 / Fold change vs veh, TAMM41 / RFU, KIAA1704 /// LOC100996395 / Fold change vs veh, KIAA1704 /// LOC100996395 / RFU, ING1 / Fold change vs veh, ING1 / RFU, TRMT61B / Fold change vs veh, TRMT61B / RFU, FUBP3 / Fold change vs veh, FUBP3 / RFU, TP53 / Fold change vs veh, TP53 / RFU, TNKS2 / Fold change vs veh, TNKS2 / RFU, ZFP14 / Fold change vs veh, ZFP14 / RFU, ACTR2 / Fold change vs veh, ACTR2 / RFU, PPP3R1 / Fold change vs veh, PPP3R1 / RFU, PIK3R1 / Fold change vs veh, PIK3R1 / RFU, HNRNPA1 / Fold change vs veh, HNRNPA1 / RFU, RNF170 / Fold change vs veh, RNF170 / RFU, ZNF28 / Fold change vs veh, ZNF28 / RFU, RNGTT / Fold change vs veh, RNGTT / RFU, OGT / Fold change vs veh, OGT / RFU, BRD1 / Fold change vs veh, BRD1 / RFU, MARS / Fold change vs veh, MARS / RFU, ZNF655 / Fold change vs veh, ZNF655 / RFU, FAHD1 / Fold change vs veh, FAHD1 / RFU, BDP1 / Fold change vs veh, BDP1 / RFU, LRRCC1 / Fold change vs veh, LRRCC1 / RFU, ARID1A / Fold change vs veh, ARID1A / RFU, ZNF146 / Fold change vs veh, ZNF146 / RFU, ZNF330 / Fold change vs veh, ZNF330 / RFU, GPN3 / Fold change vs veh, GPN3 / RFU, C9orf123 / Fold change vs veh, C9orf123 / RFU, N4BP2L2 / Fold change vs veh, N4BP2L2 / RFU, ARFIP1 / Fold change vs veh, ARFIP1 / RFU, FAM179B / Fold change vs veh, FAM179B / RFU, BCL10 / Fold change vs veh, BCL10 / RFU, UHRF1BP1L / Fold change vs veh, UHRF1BP1L / RFU, BET1 / Fold change vs veh, BET1 / RFU, CNOT2 / Fold change vs veh, CNOT2 / RFU, ZNF268 / Fold change vs veh, ZNF268 / Fold change vs veh, ZNF507 / RFU, DGCR2 / Fold change vs veh, DGCR2 / RFU, WDSUB1 / Fold change vs veh, WDSUB1 / Fold change vs veh, HSP90B1 /// MIR3652 / RFU, ADSS / Fold change vs veh, ADSS / RFU, GK / Fold change vs veh, GK / RFU, ZNF148 / Fold change vs veh, ZNF148 / RFU, TAF9 / Fold change vs veh, TAF9 / RFU, SLC1A5 / Fold change vs veh, SLC1A5 / RFU, SLMO2 / Fold change vs veh, SLMO2 / RFU, ABCC4 / Fold change vs veh, ABCC4 / RFU, LOC101060439 /// RAP1B / Fold change vs veh, LOC101060439 /// RAP1B / RFU, RFX7 / Fold change vs veh, RFX7 / RFU, GTPBP10 / Fold change vs veh, GTPBP10 / RFU, CNEP1R1 / Fold change vs veh, CNEP1R1 / RFU, BIVM-ERCC5 /// ERCC5 / Fold change vs veh, BIVM-ERCC5 /// ERCC5 / RFU, ILF3 / Fold change vs veh, ILF3 / RFU 11762660_at / Fold change /veh 11762660_at / RFU VCAN (11757783_s_at) / Fold change /veh VCAN (11757783_s_at) / RFU DDX43 (11728927_at) / Fold change /veh DDX43 (11728927_at) / RFU KRT8 (11758188_x_at) / Fold change /veh KRT8 (11758188_x_at) / RFU NKD1 (11759106_at) / Fold change /veh NKD1 (11759106_at) / RFU SRD5A1 (11742802_a_at) / Fold change /veh SRD5A1 (11742802_a_at) / RFU TPSAB1 /// TPSB2 (11721975_s_at) / Fold change /veh TPSAB1 /// TPSB2 (11721975_s_at) / RFU GSTM3 (11746129_a_at) / Fold change /veh GSTM3 (11746129_a_at) / RFU IL23R (11737362_x_at) / Fold change /veh IL23R (11737362_x_at) / RFU TMEM51 (11727254_a_at) / Fold change /veh TMEM51 (11727254_a_at) / RFU PIWIL2 (11732686_x_at) / Fold change /veh PIWIL2 (11732686_x_at) / RFU ORM1 (11744905_x_at) / Fold change /veh ORM1 (11744905_x_at) / RFU CCDC152 (11743942_at) / Fold change /veh CCDC152 (11743942_at) / RFU ECM1 (11717891_a_at) / Fold change /veh ECM1 (11717891_a_at) / RFU IL23R (11748794_a_at) / Fold change /veh IL23R (11748794_a_at) / RFU TNFAIP8L3 (11732012_x_at) / Fold change /veh TNFAIP8L3 (11732012_x_at) / RFU MBOAT4 (11741988_at) / Fold change /veh MBOAT4 (11741988_at) / RFU 11764193_at / Fold change /veh 11764193_at / RFU TMEM53 (11763286_at) / Fold change /veh TMEM53 (11763286_at) / RFU MAGEB2 (11727129_at) / Fold change /veh MAGEB2 (11727129_at) / RFU TMEM200A (11744735_a_at) / Fold change /veh TMEM200A (11744735_a_at) / RFU CCDC152 (11751479_a_at) / Fold change /veh CCDC152 (11751479_a_at) / RFU FAM211A (11726209_a_at) / Fold change /veh FAM211A (11726209_a_at) / RFU RGS16 (11746705_a_at) / Fold change /veh RGS16 (11746705_a_at) / RFU VCAN (11755009_s_at) / Fold change /veh VCAN (11755009_s_at) / RFU RHOB (11743442_s_at) / Fold change /veh RHOB (11743442_s_at) / RFU RGS16 (11720943_a_at) / Fold change /veh RGS16 (11720943_a_at) / RFU RGS16 (11720944_at) / Fold change /veh RGS16 (11720944_at) / RFU, VPS4B / Fold change vs veh, VPS4B / RFU, CREB1 / Fold change vs veh, CREB1 / RFU, DNAJC13 / Fold change vs veh, DNAJC13 / RFU, GNAQ / Fold change vs veh, GNAQ / RFU, CDK5R1 / Fold change vs veh, CDK5R1 / RFU, ZRANB3 / Fold change vs veh, ZRANB3 / RFU, CUL4A / Fold change vs veh, CUL4A / RFU, CCNY / Fold change vs veh, CCNY / RFU, UFL1 / Fold change vs veh, UFL1 / RFU, COG3 / Fold change vs veh, COG3 / RFU, DIAPH2 / Fold change vs veh, DIAPH2 / RFU, SKA2 / Fold change vs veh, SKA2 / RFU, AFF3 / Fold change vs veh, AFF3 / RFU, LMF1 / Fold change vs veh, LMF1 / RFU, IPO11 / Fold change vs veh, IPO11 / RFU, DFFB / Fold change vs veh, DFFB / RFU, FOXP1 / Fold change vs veh, FOXP1 / RFU, CARD8 / Fold change vs veh, CARD8 / RFU, STRN3 / Fold change vs veh, STRN3 / RFU, ADK / Fold change vs veh, ADK / RFU, RASSF2 / Fold change vs veh, RASSF2 / RFU, WIPF1 / Fold change vs veh, WIPF1 / RFU, LARP1B / Fold change vs veh, LARP1B / RFU, RASA1 / Fold change vs veh, RASA1 / RFU, RB1 / Fold change vs veh, RB1 / RFU, PPFIA1 / Fold change vs veh, PPFIA1 / RFU, MAT2A / Fold change vs veh, MAT2A / RFU, CCT5 / Fold change vs veh, CCT5 / RFU, WDR92 / Fold change vs veh, WDR92 / RFU, CUX1 / Fold change vs veh, CUX1 / RFU, TTC7A / Fold change vs veh, TTC7A / RFU, TMEM135 / Fold change vs veh, TMEM135 / RFU, DEPTOR / Fold change vs veh, DEPTOR / RFU, CPM / Fold change vs veh, CPM / RFU, DNAJB6 / Fold change vs veh, DNAJB6 / RFU, CACNA2D3 / Fold change vs veh, CACNA2D3 / RFU, DTX4 / Fold change vs veh, DTX4 / RFU, TFCP2 / Fold change vs veh, TFCP2 / RFU, GMCL1 /// GMCL1P1 / Fold change vs veh, GMCL1 /// GMCL1P1 / RFU, AEBP2 / Fold change vs veh, AEBP2 / RFU, SNHG1 /// SNORD22 /// SNORD25 /// SNORD26 /// SNORD27 /// SNORD28 /// SNORD29 /// SNORD31 / Fold change vs veh, SNHG1 /// SNORD22 /// SNORD25 /// SNORD26 /// SNORD27 /// SNORD28 /// SNORD29 /// SNORD31 / Fold change (Aza/veh), C12orf56 (ProbeSet 11735607_a_at) / Fold change (ACY-1035/veh), C12orf56 (ProbeSet 11735607_a_at) / Fold change (Aza/veh), FGFR1OP (ProbeSet 11751329_s_at) / Fold change (ACY-1035/veh), FGFR1OP (ProbeSet 11751329_s_at) / Fold change (Aza/veh), VPS36 (ProbeSet 11739960_a_at) / Fold change (ACY-1035/veh), VPS36 (ProbeSet 11739960_a_at) / RFU SYPL1 (11715823_x_at) / Fold change /veh SYPL1 (11715823_x_at) / RFU IGFBP7 (11715501_s_at) / Fold change /veh IGFBP7 (11715501_s_at) / RFU REEP3 (11722064_at) / Fold change /veh REEP3 (11722064_at) / RFU IGLL1 (11728026_x_at) / Fold change /veh IGLL1 (11728026_x_at): dose or concentration left out as unconfirmed
# Details: ProbeSet 11728314_at; LIST B
smiles,measurement,value
Nc1ncn([C@@H]2O[C@H](CO)[C@@H](O)[C@H]2O)c(=O)n1 [azacitidine],"RFU, ZNF148",202.48 RFU
